Data from patent US11666658B2, “Rifamycin analogs and antibody-drug conjugates thereof” (Regeneron Pharmaceuticals, Inc., priority 2018, dated 2023).
Values after ≈ are worked out from the molar mass of the structure shown. “Also recorded” adds a separate entry of the source.

Columns and labels:
Type in all cases: cell-based, Staphylococcus aureus
S. aureus NRS384 [1] = assay: Broth minimum inhibitory concentration (MIC) assay 1, S. aureus growth inhibition; settings: S. aureus NRS384 in TSB, 24 h at 37° C., OD600 nm; for MIC: Staphylococcus aureus
Protocol: To test the potency of rifamycin analogs of the disclosure in vitro, a broth growth inhibition assay was developed. For the assay, S. aureus NRS384 was grown in Tryptic Soy Broth (TSB) overnight, then sub-cultured 1:50 in fresh TSB and grown for an additional two hours. The culture was then pelleted via centrifugation and washed twice in PBS. The culture was then diluted to 1×10^4 cfu/mL in TSB and 50 μL of the suspension was added per well to a 96 well microtiter dish in duplicate. A dilution series of the indicated antibiotic (an analog according to the disclosure or a previously known analog Rifampicin) was added 1:1 for a final starting concentration of 1×10^−5 M with 1:3 dilutions. The plates were incubated at 37° C. with shaking for 24 h and then the OD600 nm was read on a Spectramax i3 Minimax 300.
A plot of the S. aureus inhibition assay conducted with rifamycin analogs according to the disclosure is shown as FIG. 1.

[2] = system: intracellular S. aureus NRS384 in THP-1 macrophages; assay: Intracellular killing assay 1 (rifamycin analogs, S. aureus in THP-1 macrophages); settings: for MIC: Staphylococcus aureus, NRS384, lowest concentration that resulted in intracellular S. aureus eradication
Protocol: (§1) THP-1 monocytic cell line was grown in media (RMPI+10% FBS+1% Penicillin/Streptomycin), then seeded at a density of 1e5 cells/well in a 96 well plate and differentiated into macrophages for three days prior to infection using 200 nM PMA. An overnight culture of S. aureus NRS384 was grown in RPMI, washed twice with PBS and resuspended at 1e7 cfu/mL in PBS. THP-1 were washed with warm media (RMPI without FBS) to remove the Penicillin/Streptomycin and then infected with the S. aureus suspension at a multiplicity of infection of 10:1 (S. aureus: macrophages). Plates were spun at 300×g for 5 minutes to synchronize adhesion of the bacteria, then incubated at 37° C. for 2 hours. Free-floating bacteria were removed by washing 2× with warm media and remaining extracellular S. aureus were killed by addition of media containing gentamicin (50 ug/mL). After 1 h, media was aspirated and the indicated compound was added to infected macrophages in media containing 50 µg/mL gentamicin to prevent extracellular growth of S. aureus. After 2 h, plates were washed 2× with warm RPMI without FBS, and 100 ul of THP-1 lysis buffer (0.1% Triton in PBS) was added to each well. S. aureus survival was enumerated by colony forming units through serial dilution and plating onto TSA.

S. aureus NRS384 [3] = assay: Broth minimum inhibitory concentration (MIC) assay 2; settings: Staphylococcus aureus; S. aureus NRS384 in TSB, 24 hours at 37° C., OD600; median of at least two independent experiments; read-out: S. aureus Broth MIC
Protocol: To test the potency of rifamycin analogs of the disclosure in vitro, a broth growth inhibition assay was developed. For the assay, S. aureus NRS384 was grown in Tryptic Soy Broth (TSB) overnight, then sub-cultured 1:50 in fresh TSB and grown for an additional two hours. The culture was then pelleted via centrifugation and washed twice in PBS. The culture was then diluted to 1×10^6 cfu/mL in TSB and 100 μL of the suspension was added per well to a 2 mL dilution plate in triplicate. […] The plates were sealed and incubated at 37° C. with shaking for 24 hours, then 150 μL of each sample was added to 96 well microtiter plates and the OD600 nm was read on a Spectramax i3 Minimax 300.
The broth MIC experiments were assessed in at least two independent experiments and the median value is captured below unless indicated otherwise.

[4] = system: intracellular S. aureus NRS384 in THP-1 macrophages; assay: Intracellular killing assay 2 (rifamycin analogs, S. aureus in THP-1 macrophages); settings: Staphylococcus aureus, NRS384, 2 h; lowest concentration giving intracellular S. aureus below limit of detection (50 cfu/mL) in THP-1 macrophages; median of at least two experiments; read-out: S. aureus Intracellular killing MIC
Protocol: as §1, with “[…] The compounds were” for “After 1 h, media was aspirated and the indicated compound was”, “added” for “added to infected macrophages”, “hours,” for “h,”
The intracellular MIC value indicated represents the median value of at least two independent experiments, unless indicated otherwise.

Row | Compound | MIC (S. aureus NRS384 [1]) [µM] | intracellular S. aureus killing capacity compared to rifampicin (in words) [2] | MIC ([2]; 2 h with compound) [µM] | MIC (S. aureus NRS384 [3]) [µM] | MIC [4] [µM] | S. aureus Broth MIC (S. aureus NRS384 [1]) [µM] | Intracellular killing MIC ([2]; lowest concentration that resulted in intracellular S. aureus eradication, 2 h with compound)
1 | CO[C@H]1/C=C/O[C@@]2(C)Oc3c(C)c(O)c4c(=O)c(c5oc6cc(OC7CCNCC7)ccc6nc-5c4c3C2=O)NC(=O)/C(C)=C\C=C\[C@H](C)[C@H](O)[C@@H](C)[C@@H](O)[C@@H](C)[C@H](OC(C)=O)[C@@H]1C [Analog 14] | 0.041 (≈ 0.0362 µg/mL) | increased intracellular S. aureus killing capacity compared to rifampicin | 1 (≈ 0.884 µg/mL) |  |  |  | 
2 | COc1ccc2nc3c4c5c6c(C)c(O)c4c(=O)c(c-3oc2c1)NC(=O)/C(C)=C\C=C\[C@H](C)[C@H](O)[C@@H](C)[C@@H](O)[C@@H](C)[C@H](OC(C)=O)[C@H](C)[C@@H](OC)/C=C/O[C@@](C)(O6)C5=O [Analog 1a, Rifamycin 4-MeO-Phenol Analogs] | 0.014 (≈ 0.0114 µg/mL) | increased intracellular S. aureus killing capacity compared to rifampicin | 1 (≈ 0.815 µg/mL) |  |  |  | 
3 | CO[C@H]1/C=C/O[C@@]2(C)Oc3c(C)c(O)c4c(=O)c(c5oc6cc(OCCN)ccc6nc-5c4c3C2=O)NC(=O)/C(C)=C\C=C\[C@H](C)[C@H](O)[C@@H](C)[C@@H](O)[C@@H](C)[C@H](OC(C)=O)[C@@H]1C [Analog 16e] | 0.0046 (≈ 0.00388 µg/mL) | increased intracellular S. aureus killing capacity compared to rifampicin | 1 (≈ 0.844 µg/mL) |  |  |  | 
4 | CO[C@H]1/C=C/O[C@@]2(C)Oc3c(C)c(O)c4c(=O)c(c5n(C)c6cc(O)ccc6nc-5c4c3C2=O)NC(=O)/C(C)=C\C=C\[C@H](C)[C@H](O)[C@@H](C)[C@@H](O)[C@@H](C)[C@H](OC(C)=O)[C@@H]1C [Analog 1d, Rifamycin 4-OH-Phenol N-Methyl analogs] | 0.37 (≈ 0.301 µg/mL) |  | > 1 |  |  |  | 
5 | CNCCOc1ccc2nc3c4c5c6c(C)c(O)c4c(=O)c(c-3oc2c1)NC(=O)/C(C)=C\C=C\[C@H](C)[C@H](O)[C@@H](C)[C@@H](O)[C@@H](C)[C@H](OC(C)=O)[C@H](C)[C@@H](OC)/C=C/O[C@@](C)(O6)C5=O [Analog 16d] | 0.041 (≈ 0.0352 µg/mL) | increased intracellular S. aureus killing capacity compared to rifampicin | 1 (≈ 0.858 µg/mL) |  |  |  | 
6 | CO[C@H]1/C=C/O[C@@]2(C)Oc3c(C)c(O)c4c(=O)c(c5oc6cc(OCCN(C)C)ccc6nc-5c4c3C2=O)NC(=O)/C(C)=C\C=C\[C@H](C)[C@H](O)[C@@H](C)[C@@H](O)[C@@H](C)[C@H](OC(C)=O)[C@@H]1C [Analog 16a] | 0.0015 (≈ 0.00131 µg/mL) | increased intracellular S. aureus killing capacity compared to rifampicin; also recorded: highest activity | 0.04 (≈ 0.0349 µg/mL) |  |  |  | 
7 | CO[C@H]1/C=C/O[C@@]2(C)Oc3c(C)c(O)c4c(=O)c(c5oc6cc(OCCN7CCCC7)ccc6nc-5c4c3C2=O)NC(=O)/C(C)=C\C=C\[C@H](C)[C@H](O)[C@@H](C)[C@@H](O)[C@@H](C)[C@H](OC(C)=O)[C@@H]1C [Analog 16k] |  |  |  | 0.000977 (≈ 0.000877 µg/mL) | 1 (≈ 0.898 µg/mL) |  | 
8 | CO[C@H]1/C=C/O[C@@]2(C)Oc3c(C)c(O)c4c(=O)c(c5oc6cc(OCCN(C)C)cc(OCc7ccccc7)c6nc-5c4c3C2=O)NC(=O)/C(C)=C\C=C\[C@H](C)[C@H](O)[C@@H](C)[C@@H](O)[C@@H](C)[C@H](OC(C)=O)[C@@H]1C [Analog 52] |  |  |  | 0.0625 (≈ 0.0611 µg/mL) | 1 (≈ 0.978 µg/mL) |  | 
9 | CO[C@H]1/C=C/O[C@@]2(C)Oc3c(C)c(O)c4c(O)c(c(/C=N/N5CCN(C)CC5)c(O)c4c3C2=O)NC(=O)/C(C)=C\C=C\[C@H](C)[C@H](O)[C@@H](C)[C@@H](O)[C@@H](C)[C@H](OC(C)=O)[C@@H]1C [Rifampicin, rifampicin, reference compound] |  |  |  | 0.00391 (≈ 0.00322 µg/mL) | 1 (≈ 0.823 µg/mL) | 0.0046 | >1.0E−06
10 | CO[C@H]1/C=C/O[C@@]2(C)Oc3c(C)c(O)c4c(=O)c(c5oc6cc(OCCN7CCCCCC7)ccc6nc-5c4c3C2=O)NC(=O)/C(C)=C\C=C\[C@H](C)[C@H](O)[C@@H](C)[C@@H](O)[C@@H](C)[C@H](OC(C)=O)[C@@H]1C [Analog 16n] |  |  |  | 0.0156 (≈ 0.0144 µg/mL) | 1 (≈ 0.926 µg/mL) |  | 
11 | CO[C@H]1/C=C/O[C@@]2(C)Oc3c(C)c(O)c4c(=O)c(c5oc6cc(OCC7CCCN7C)ccc6nc-5c4c3C2=O)NC(=O)/C(C)=C\C=C\[C@H](C)[C@H](O)[C@@H](C)[C@@H](O)[C@@H](C)[C@H](OC(C)=O)[C@@H]1C (stereo partly shown) [Analog 16l] |  |  |  | 0.00391 (≈ 0.00351 µg/mL) | 1 (≈ 0.898 µg/mL) |  | 
12 | CO[C@H]1/C=C/O[C@@]2(C)Oc3c(C)c(O)c4c(=O)c(c5oc6cc(OC7CCN(C)CC7)ccc6nc-5c4c3C2=O)NC(=O)/C(C)=C\C=C\[C@H](C)[C@H](O)[C@@H](C)[C@@H](O)[C@@H](C)[C@H](OC(C)=O)[C@@H]1C [Analog 17] |  |  |  | 0.0156 (≈ 0.014 µg/mL) | 0.2 (≈ 0.18 µg/mL) |  | 
13 | CO[C@H]1/C=C/O[C@@]2(C)Oc3c(C)c(O)c4c(=O)c(c5oc6cc(OCc7ccccc7)ccc6nc-5c4c3C2=O)NC(=O)/C(C)=C\C=C\[C@H](C)[C@H](O)[C@@H](C)[C@@H](O)[C@@H](C)[C@H](OC(C)=O)[C@@H]1C [Analog 1b, Rifamycin 4-BnO-Phenol Analogs] | 0.12 (≈ 0.107 µg/mL) |  | > 1 |  |  |  | 
14 | CO[C@H]1/C=C/O[C@@]2(C)Oc3c(C)c(O)c4c(=O)c(c5oc6cc(OCCN(C)c7ccccn7)cc(O)c6nc-5c4c3C2=O)NC(=O)/C(C)=C\C=C\[C@H](C)[C@H](O)[C@@H](C)[C@@H](O)[C@@H](C)[C@H](OC(C)=O)[C@@H]1C [Analog 29h] |  |  |  | 0.0625 (≈ 0.0594 µg/mL) | 1 (≈ 0.951 µg/mL) |  | 
15 | CO[C@H]1/C=C/O[C@@]2(C)Oc3c(C)c(O)c4c(=O)c(c5oc6cc(OCC7CCN(C)CC7)ccc6nc-5c4c3C2=O)NC(=O)/C(C)=C\C=C\[C@H](C)[C@H](O)[C@@H](C)[C@@H](O)[C@@H](C)[C@H](OC(C)=O)[C@@H]1C [Analog 16g] |  |  |  | 0.0156 (≈ 0.0142 µg/mL) | 0.2 (≈ 0.182 µg/mL) |  | 
